Legend:
[1] = target: human σ1 receptors (Homo sapiens, UniProt Q99720); assay: σ1 receptor affinity, competitive binding with [3H]-(+)-pentazocine (HZDR Leipzig); settings: determined at HZDR Leipzig
Procedure: To decide which of the nine compounds would be suitable for subsequent radiofluorination, we determined the affinity towards the σ1 receptor as the most relevant off-target protein.
(§1) Binding affinity experiments to assess the Ki values of test compounds towards rat σ2 receptors, human σ1 receptors, and rat VAChT were performed according to protocols previously published by our group. The same protocol was used to determine the KD and Bmax values of RM273 towards σ2 receptors expressed in F98 cells by homologous competition analyzing the displacement of [^18F]RM273 by RM273.

[2] = target: T1, σ2 receptor (Rattus norvegicus, UniProt Q5U3Y7); assay: σ2 receptor affinity, inhibition of [3H]DTG binding in rat liver membrane homogenates; set-up: preparations of membrane homogenates obtained from rat liver; from tissue; host or cells: rat liver; settings: for Ki: [3H]DTG, rat liver membrane homogenates
T1 sequence (Q5U3Y7 1-176): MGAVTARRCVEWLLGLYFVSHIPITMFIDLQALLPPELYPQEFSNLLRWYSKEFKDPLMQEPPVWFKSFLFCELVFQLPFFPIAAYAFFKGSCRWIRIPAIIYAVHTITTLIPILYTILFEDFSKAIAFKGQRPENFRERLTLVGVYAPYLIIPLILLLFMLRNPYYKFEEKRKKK
Procedure: Initially, we assessed the affinity of all derivatives towards the target protein and investigated the inhibition of the binding of [^3H]DTG in preparations of membrane homogenates obtained from rat liver, which is known to express high levels of σ2 receptors.
as §1

[3] = set-up: method as in PMID 17579383; settings: 5 min p.i. ref 25; cited from earlier work
[4] = target: T1, σ2 receptor; assay: In vitro autoradiography on rat brain cryosections (healthy and orthotopic F98 glioblastoma); assay type: binding; set-up: from tissue; host or cells: rat brain cryosections (SPRD healthy; Fisher F344 with orthotopic F98 glioblastoma); settings: autoradiography, co-incubation with competitor at 10^−6 M
Text: Initially, we investigated the binding of [^18F]RM273 on rat brain slices by autoradiography to compare the distribution pattern with that of established σ2 receptor ligands and to examine the target specificity. The highest binding was found in the cortical areas and hippocampal structures. […] Accordingly, we proceeded to investigate, in a rat glioblastoma model, the potential suitability of [^18F]RM273 for molecular characterization of cancer. At first, homologous competition studies using membrane homogenates of the rat glioma cell line F98 were performed to determine the σ2 receptor binding parameters of [^18F]RM273 cells (Figure 3).
We subsequently investigated the binding parameters of [^18F]RM273 by in vitro autoradiography using cryosections of rat brains obtained three weeks after stereotactic implantation of F98 rat glioblastoma cells into the left striatum. Initially, we performed a homologous displacement study to directly compare the binding sites of the new radioligand in a healthy brain and a brain tumor. The inhibition curves presented in Figure 3 indicate binding of [^18F]RM273 to single binding sites in both brain regions. […] Further supporting the assumption of a tumor-specific overexpression of σ2 receptors, a remarkably high density of binding sites of [^18F]RM273 in the F98 tumor tissue was observed (Figure 4). Compared to the healthy tissue (contralateral side), about three times more specific binding sites of [^18F]RM273 were estimated for the tumor region (32 × 10^−9 mol/L vs. 94 × 10^−9 mol/L at 1.5 nM [^18F]RM273).
In vitro autoradiography was performed using cryosections of brains of a healthy rat (SPRD, female, 250 g; Medizinisch-Experimentelles Zentrum, Universität Leipzig, Leipzig, Germany) and brains obtained from rats (Fisher F344/HanZtmRj, male, ≈260 g; Janvier Labs, Le Genest-Saint-Isle, France) 23 days after stereotactic implantation of 5 × 10^4 F98 cells in the […] striatum (n = 2).
Immediately after isolation, the brains were frozen by immersion in isopentane at −25 °C. Cryosections of 12 μm (Microm HM560 cryostat, Thermo Scientific, Schwerte, Germany) were mounted on microscopic glass slides, dried at room temperature, and stored at −25 °C. For the experiment, the slices were dried at room temperature under a stream of cold air before pre-incubation in PBS, pH 7.4, at room temperature for 15 min. […] Co-incubation with serial dilutions of RM273 (10^−10–10^−6 M) was performed to determine an inhibition curve. After 60 min, the incubation at room temperature was terminated by decanting and washing the slides by two consecutive incubations in ice-cold washing buffer (50 mM TRIS-HCl, pH 7.4 at 4 °C) for two min each, followed by dipping in ice-cold demineralized water for 5 sec and drying under a stream of cold air. In parallel, for subsequent quantification of the data obtained from the homologous competition experiment, defined volumes, and thus defined activities of the radioligand solution, were pipetted onto a microscopic glass slide (0.5–3 μL = 0.0355–0.213 kBq) and dried. Afterwards the tissue samples along with the standards were exposed to an ^18F-sensitive phosphor screen (ABC) for two hours. Image acquisition was performed using a phosphorimager (HD-CR 35; DÜRR NDT GmbH & Co. KG, Bietigheim-Bissingen, Germany). Analysis of the digitized images was performed by image analysis software (AIDA; Elysia-raytest GmbH, Straubenhardt, Germany).
Irregular regions of interest (ROI) were drawn on the standard spots and the different brain regions, which were confirmed by Nissl staining of the identical brain sections. Optical density measured in each ROI was expressed as quantum levels per unit area (QL/pixel) with a pixel size of 12.5 μm^2. From the calibration curve obtained from the standards by plotting QL vs. activity, the QL values of the ROIs were converted to activity values followed by conversion to chemical concentration of RM273 based on the molar activity of [^18F]RM273. […]

[5] = target: guinea pig σ1 receptors (Cavia porcellus, UniProt Q60492); assay: σ1 receptor affinity, competitive binding with [3H]-(+)-pentazocine (WWU); settings: determined at WWU
Text: To decide which of the nine compounds would be suitable for subsequent radiofluorination, we determined the affinity towards the σ1 receptor as the most relevant off-target protein. […] To finally select the best derivative for radiofluorination, we calculated the σ2:σ1 selectivity values and identified RM273 (41) as the most suitable one with a ratio of about 400.

[6] = target: T2, rat VAChT (Rattus norvegicus, UniProt Q62666); assay: Displacement of [3H]vesamicol in membrane homogenates of PC12 cells stably expressing rat VAChT; assay type: binding
T2 construct: expressed in transfected cells; host or cells: PC12 cells
T2 sequence (Q62666 1-530): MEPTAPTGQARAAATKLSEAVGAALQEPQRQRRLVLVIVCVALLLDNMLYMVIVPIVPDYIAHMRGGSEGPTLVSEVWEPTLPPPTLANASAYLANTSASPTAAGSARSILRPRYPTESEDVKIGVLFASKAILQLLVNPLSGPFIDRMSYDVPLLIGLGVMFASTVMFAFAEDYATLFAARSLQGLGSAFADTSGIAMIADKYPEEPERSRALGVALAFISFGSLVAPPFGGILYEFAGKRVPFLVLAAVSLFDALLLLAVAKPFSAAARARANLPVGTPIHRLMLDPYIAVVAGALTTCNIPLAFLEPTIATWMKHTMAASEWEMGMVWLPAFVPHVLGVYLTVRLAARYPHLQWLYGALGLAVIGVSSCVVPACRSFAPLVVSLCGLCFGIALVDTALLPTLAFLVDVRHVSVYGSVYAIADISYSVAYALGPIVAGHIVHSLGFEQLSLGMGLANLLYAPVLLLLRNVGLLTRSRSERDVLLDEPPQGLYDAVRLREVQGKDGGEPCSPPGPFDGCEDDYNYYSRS
Procedure: Because ligands targeting σ receptors may be impaired by off-target binding towards the vesicular acetylcholine transporter (VAChT), we determined in the next step the affinity of RM273 towards this protein.
as §1

[7] = Ki σ1 from guinea pig σ1 receptors

human σ1 receptors, sequence (Q99720 whole entry): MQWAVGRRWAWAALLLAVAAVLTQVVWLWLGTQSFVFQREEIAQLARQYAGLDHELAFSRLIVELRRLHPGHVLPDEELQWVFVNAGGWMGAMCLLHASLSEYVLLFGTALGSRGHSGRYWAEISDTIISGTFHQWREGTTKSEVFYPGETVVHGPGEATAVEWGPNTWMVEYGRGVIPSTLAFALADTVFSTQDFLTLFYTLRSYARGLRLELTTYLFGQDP
guinea pig σ1 receptors, sequence (Q60492 whole entry): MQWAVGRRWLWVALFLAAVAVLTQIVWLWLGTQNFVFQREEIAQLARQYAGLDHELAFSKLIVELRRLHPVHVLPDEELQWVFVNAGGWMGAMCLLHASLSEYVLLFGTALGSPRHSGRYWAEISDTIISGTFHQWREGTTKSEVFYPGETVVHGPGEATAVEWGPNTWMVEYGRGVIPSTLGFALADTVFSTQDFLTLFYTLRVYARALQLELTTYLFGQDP

COc1cc2c(cc1OC)CN(CCCCn1ccc3cc(F)ccc31)CC2 [Compound 35, 2-(4-(5-Fluoro-1H-indol-1-yl)butyl)-6,7-dimethoxy-1,2,3,4-tetrahydroisoquinoline]
Ki [1]: 116 nM | Selectivity (Ki σ1/Ki σ2) ([2]; Ki σ1 from human σ1 receptors): 9.7 | Ki [2]: 12 nM

COc1cc2c(cc1OC)CN(CCCCn1ccc3cccc(F)c31)CC2 [Compound 37, 2-(4-(7-Fluoro-1H-indol-1-yl)butyl)-6,7-dimethoxy-1,2,3,4-tetrahydroisoquinoline]
Ki [1]: 80 nM | Selectivity (Ki σ1/Ki σ2) ([2]; Ki σ1 from human σ1 receptors): 8 | Ki [2]: 10 nM

COc1cc2c(cc1OC)CN(CCCCn1ccc3ccc(F)cc31)CC2 [Compound 36, 2-(4-(6-Fluoro-1H-indol-1-yl)butyl)-6,7-dimethoxy-1,2,3,4-tetrahydroisoquinoline]
Ki [1]: 46 nM | Selectivity (Ki σ1/Ki σ2) ([2]; Ki σ1 from human σ1 receptors): 6.5 | Ki [2]: 7.1 nM

COc1cc2c(cc1OC)CN(CCCCNC(=O)c1cc(C)ccc1OCC[18F])CC2 [[^18F]ISO-I]
brain uptake [3]: 0.76 % ID/g

Fc1ccc(-n2cc(CCCCN3CCC4(CC3)OCc3ccccc34)c3ccccc32)cc1 [Siramesine, siramesine, reference compound]
displacement of [18F]RM273 binding on rat brain slices [4]: completely displaceable

COc1cc2c(cc1OC)CN(CCCCn1ccc3ccc(F)nc31)CC2 [41 (RM273), 2-(4-(6-Fluoro-1H-pyrrolo[2,3-b]pyridin-1-yl)butyl)-6,7-dimethoxy-1,2,3,4-tetrahydroisoquinoline]
Ki [5]: 691 nM | Ki [6]: > 2000 nM | Selectivity (Ki σ1/Ki σ2) [2, 7]: 432 | Selectivity (Ki σ1/Ki σ2) ([2]; Ki σ1 from guinea pig σ1 receptors, listed as RM273 (41)): about 400 | Ki [2]: 1.6 nM

COc1cc2c(cc1OC)CN(CCCCn1ccc3nc(F)ccc31)CC2 [Compound 39, 2-[4-(5-Fluor-1H-pyrrolo[3,2-b]pyridin-1-yl)butyl]-6,7-dimethoxy-1,2,3,4-tetrahydroisochinolin]
Ki [5]: 122 nM | Selectivity (Ki σ1/Ki σ2) [2, 7]: 32 | Ki [2]: 3.8 nM

COc1cc2c(cc1OC)CN(CCCCn1ccc3cc(F)ncc31)CC2 [Compound 40, 2-[4-(5-Fluor-1H-pyrrolo[2,3-c]pyridin-1-yl)butyl]-6,7-dimethoxy-1,2,3,4-tetrahydroisochinolin]
Ki [5]: 85 nM | Selectivity (Ki σ1/Ki σ2) [2, 7]: 85 | Ki [2]: 1 nM

COc1cc2c(cc1OC)CN(CCCCn1ccc3c(F)cccc31)CC2 [Compound 34, 2-[4-(4-Fluoro-1H-indol-1-yl)butyl]-6,7-dimethoxy-1,2,3,4-tetrahydroisoquinoline]
Ki [1]: 21 nM | Selectivity (Ki σ1/Ki σ2) ([2]; Ki σ1 from human σ1 receptors): 1.5 | Ki [2]: 14 nM

COc1cc2c(cc1OC)CN(CCCCn1ccc3ccnc(F)c31)CC2 [42 (RM297), 2-[4-(7-Fluor-1H-pyrrolo[2,3-c]pyridin-1-yl)butyl]-6,7-dimethoxy-1,2,3,4-tetrahydroisochinolin]
Ki [5]: 916 nM | Selectivity (Ki σ1/Ki σ2) [2, 7]: 339 | Ki [2]: 2.7 nM

COc1cc2c(cc1OC)CN(CCCCn1ccc3c(F)nccc31)CC2 [Compound 38, 2-[4-(4-Fluor-1H-pyrrolo[3,2-c]pyridin-1-yl)butyl]-6,7-dimethoxy-1,2,3,4-tetrahydroisochinolin]
Ki [5]: 80 nM | Selectivity (Ki σ1/Ki σ2) [2, 7]: 14 | Ki [2]: 5.5 nM

COc1cccc2c1CCCC2CCCN1CCN(C2CCCCC2)CC1 (centres unmarked) [PB28, reference compound]
displacement of [18F]RM273 binding on rat brain slices [4]: completely displaceable

— article PMC8196714, “Design, Radiosynthesis and Preliminary Biological Evaluation in Mice of a Brain-Penetrant ^18F-Labelled σ2 Receptor Ligand” (International Journal of Molecular Sciences, 2021)
